According to ChEMBL document CHEMBL1201862, “PubChem BioAssay data set” (2004):
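Exposure lasted 48 hours, with cells grown in 96-well plates and compounds tested at five concentrations. GI50 = concentration required for 50% inhibition of growth.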 The source made the active and inactive calls. No stated cut-off is given here; in the data, active = GI50 up to about 1.1 µM and inactive = higher.

Legend:
Assay in all cases: inhibition of tumour cell growth, NCI panel, 48 h
TK-10 = tested on: TK-10
OVCAR-3 = tested on: OVCAR-3
NCI-H460 = tested on: NCI-H460
UACC-257 = tested on: UACC-257
HCC 2998 = tested on: HCC 2998
SF-268 = tested on: SF-268
DLD-1 = tested on: DLD-1
786-0 = tested on: 786-0
ACHN = tested on: ACHN
HOP-92 = tested on: HOP-92
A549 = tested on: A549
SK-MEL-2 = tested on: SK-MEL-2
K562 = tested on: K562
HL-60 = tested on: HL-60
RXF 393 = tested on: RXF 393
T47D = tested on: T47D
Hs-578T = tested on: Hs-578T
MDA-MB-231 = tested on: MDA-MB-231
MCF7 = tested on: MCF7
BT-549 = tested on: BT-549

Measured: GI50

O=[N+]([O-])/C=C/c1ccc(Cl)cc1Cl
inactive: TK-10 > 10 µM | OVCAR-3 19.9 µM | NCI-H460 17.9 µM | UACC-257 13.4 µM | HCC 2998 15.5 µM | SF-268 21.3 µM | DLD-1 24.7 µM | 786-0 15.6 µM | ACHN 16.8 µM | HOP-92 15.3 µM | A549 21 µM | SK-MEL-2 20.3 µM | K562 3.33 µM | HL-60 5.26 µM

COC(=O)/C=C1/CCC2[C@@H](C(=O)CC3[C@]2(C)CCC[C@@]3(C)C(=O)OC)C1C (stereo partly drawn)
inactive: TK-10 20 µM | OVCAR-3 7.67 µM | NCI-H460 14.2 µM | UACC-257 10.4 µM | HCC 2998 20.1 µM | SF-268 15 µM | DLD-1 12.7 µM | 786-0 14.9 µM | ACHN 10.1 µM | HOP-92 5.13 µM | A549 15.6 µM | SK-MEL-2 16 µM | K562 3.18 µM | HL-60 2.61 µM

O=C(N/C(=C\c1cccc([N+](=O)[O-])c1)c1nc2cc([N+](=O)[O-])ccc2[nH]1)c1ccccc1
inactive: TK-10 93.3 µM | OVCAR-3 40.6 µM | HCC 2998 33.5 µM | SF-268 19.7 µM | DLD-1 28.4 µM | 786-0 36.1 µM | ACHN 28.4 µM | RXF 393 12.8 µM | HOP-92 21.4 µM | A549 26.8 µM | SK-MEL-2 24.3 µM | K562 25.1 µM

COC(=O)c1ccccc1/N=C/c1ccc(N(CCC#N)S(=O)(=O)c2ccccc2)cc1
inactive: TK-10 > 100 µM | OVCAR-3 > 100 µM | NCI-H460 > 100 µM | UACC-257 > 100 µM | SF-268 > 100 µM | DLD-1 > 100 µM | 786-0 > 100 µM | ACHN > 100 µM | RXF 393 > 100 µM | HOP-92 > 100 µM | A549 > 100 µM | SK-MEL-2 > 100 µM | K562 > 100 µM | HL-60 > 100 µM

CN1C(=O)C(Cl)(C(Cl)(Cl)S(=O)(=O)O)C(=O)c2ccccc21.c1ccncc1 (stereo not drawn)
inactive: TK-10 > 100 µM | OVCAR-3 > 100 µM | NCI-H460 > 100 µM | UACC-257 > 100 µM | HCC 2998 > 100 µM | SF-268 > 100 µM | DLD-1 > 100 µM | 786-0 > 100 µM | ACHN 76.4 µM | RXF 393 53.7 µM | HOP-92 > 100 µM | A549 > 100 µM | K562 > 100 µM | HL-60 > 100 µM

COC[C@@H](/N=C/N1CCc2cc(OC)c(OC)cc2C1)C(C)(C)C
inactive: TK-10 > 100 µM | OVCAR-3 > 100 µM | NCI-H460 > 100 µM | UACC-257 > 100 µM | SF-268 > 100 µM | DLD-1 > 100 µM | 786-0 > 100 µM | ACHN > 100 µM | RXF 393 > 100 µM | HOP-92 > 100 µM | A549 > 100 µM | K562 > 100 µM | HL-60 > 100 µM

Cc1ccccc1C(C#N)/C(=N/NC(=O)C(=O)NN)C(=O)Nc1cccc(C(F)(F)F)c1 (stereo not drawn)
inactive: TK-10 > 100 µM | OVCAR-3 > 100 µM | NCI-H460 > 100 µM | UACC-257 > 100 µM | HCC 2998 > 100 µM | SF-268 > 100 µM | DLD-1 > 100 µM | 786-0 > 100 µM | ACHN > 100 µM | HOP-92 > 100 µM | A549 > 100 µM | SK-MEL-2 > 100 µM | K562 > 100 µM | HL-60 > 100 µM

Cc1cc(O)nc(NNC(C#N)c2ccccc2O)n1 (stereo not drawn)
inactive: TK-10 61 µM | OVCAR-3 10.8 µM | NCI-H460 10.5 µM | UACC-257 39 µM | SF-268 13 µM | DLD-1 18.4 µM | 786-0 19.8 µM | ACHN 16.6 µM | RXF 393 > 100 µM | HOP-92 75.5 µM | A549 16.8 µM | SK-MEL-2 66.8 µM | K562 41.7 µM | HL-60 3.72 µM

O=C1Nc2ccccc2/C1=C/c1ccccc1
inactive: TK-10 21.7 µM | T47D 12.3 µM | Hs-578T 24.1 µM | OVCAR-3 16.7 µM | NCI-H460 15.5 µM | UACC-257 15 µM | HCC 2998 15.8 µM | SF-268 15.6 µM | 786-0 13.8 µM | ACHN 30.4 µM | RXF 393 9.27 µM | MDA-MB-231 17.8 µM | HOP-92 11 µM | A549 25.2 µM | SK-MEL-2 14.3 µM | MCF7 3.36 µM | K562 27.7 µM | BT-549 16.4 µM | HL-60 14.6 µM
